According to PubChem BioAssay AID1963833 (Molecular Pharmacology Branch, DTP, NCI, 2024):

Test system: 883617-216-R-J1-PDC complex spheroid viability
Experiment: Anticancer human tumor 883617-216-R-J1-PDC patient-derived bladder carcinoma cell line growth inhibition [POLQ]
Details: for IC50: curve of first compound; for viability, T/C: stronger effect = lower value
How it was run: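 Patient-derived tumour cells were co-cultured with HUVEC and mesenchymal stem cells as multicellular spheroids at 37 °C. They were treated with POLQ inhibitors (novobiocin, ART-558, RP6685) alone or combined with other agents. Top concentrations were at or near clinical Cmax (otherwise 10 microM; SN-38 at 1 microM), decreasing in half-log steps.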

[1] = second compound 0.0316 µM, first compound 0.00316 µM
[2] = second compound 0.0316 µM, first compound 0.01 µM
[3] = second compound 0.0316 µM, first compound 0.0316 µM
[4] = second compound 0.0316 µM, first compound 0.1 µM
[5] = second compound 0.0316 µM, first compound 0.316 µM
[6] = second compound 0.0316 µM, first compound 1 µM
[7] = second compound 0.1 µM, first compound 0.00316 µM
[8] = second compound 0.1 µM, first compound 0.01 µM
[9] = second compound 0.1 µM, first compound 0.0316 µM
[10] = second compound 0.1 µM, first compound 0.1 µM
[11] = second compound 0.1 µM, first compound 0.316 µM
[12] = second compound 0.1 µM, first compound 1 µM
[13] = second compound 0.316 µM, first compound 0.00316 µM
[14] = second compound 0.316 µM, first compound 0.01 µM
[15] = second compound 0.316 µM, first compound 0.0316 µM
[16] = second compound 0.316 µM, first compound 0.1 µM
[17] = second compound 0.316 µM, first compound 0.316 µM
[18] = second compound 0.316 µM, first compound 1 µM
[19] = second compound 1 µM, first compound 0.00316 µM
[20] = second compound 1 µM, first compound 0.01 µM
[21] = second compound 1 µM, first compound 0.0316 µM
[22] = second compound 1 µM, first compound 0.1 µM
[23] = second compound 1 µM, first compound 0.316 µM
[24] = second compound 1 µM, first compound 1 µM
[25] = second compound 3.16 µM, first compound 0.00316 µM
[26] = second compound 3.16 µM, first compound 0.01 µM
[27] = second compound 3.16 µM, first compound 0.0316 µM
[28] = second compound 3.16 µM, first compound 0.1 µM
[29] = second compound 3.16 µM, first compound 0.316 µM
[30] = second compound 3.16 µM, first compound 1 µM
[31] = second compound 10 µM, first compound 0.00316 µM
[32] = second compound 10 µM, first compound 0.01 µM
[33] = second compound 10 µM, first compound 0.0316 µM
[34] = second compound 10 µM, first compound 0.1 µM
[35] = second compound 10 µM, first compound 0.316 µM
[36] = second compound 10 µM, first compound 1 µM
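Note: spheroids exposed to compounds for seven days before readout.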
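Throughout, for viability, T/C: 100% = DMSO vehicle control viability.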

C=CCn1c(=O)c2cnc(Nc3ccc(N4CCN(C)CC4)cc3)nc2n1-c1cccc(C(C)(C)O)n1 + Nc1ccc(C#CCN(C(=O)Cc2ncc(C(F)(F)F)cc2C(F)(F)F)c2ccc(F)cc2)nn1
IC50 (second compound 0.0316 µM): > 1000 nM | IC50 (second compound 0.1 µM): > 1000 nM | IC50 (second compound 0.316 µM): > 1000 nM | IC50 (second compound 1 µM): 978 nM | IC50 (second compound 3.16 µM): > 1000 nM | IC50 (second compound 10 µM): 924 nM | viability, T/C [1]: 102% | viability, T/C [2]: 98.9% | viability, T/C [3]: 84.3% | viability, T/C [4]: 113% | viability, T/C [5]: 96.4% | viability, T/C [6]: 59.8% | viability, T/C [7]: 100% | viability, T/C [8]: 95.6% | viability, T/C [9]: 95.8% | viability, T/C [10]: 94.1% | viability, T/C [11]: 88.3% | viability, T/C [12]: 86.8% | viability, T/C [13]: 102% | viability, T/C [14]: 115% | viability, T/C [15]: 106% | viability, T/C [16]: 108% | viability, T/C [17]: 92.4% | viability, T/C [18]: 63.6% | viability, T/C [19]: 101% | viability, T/C [20]: 96.5% | viability, T/C [21]: 81.1% | viability, T/C [22]: 101% | viability, T/C [23]: 103% | viability, T/C [24]: 49% | viability, T/C [25]: 115% | viability, T/C [26]: 109% | viability, T/C [27]: 85.7% | viability, T/C [28]: 99.3% | viability, T/C [29]: 115% | viability, T/C [30]: 58.4% | viability, T/C [31]: 126% | viability, T/C [32]: 101% | viability, T/C [33]: 108% | viability, T/C [34]: 116% | viability, T/C [35]: 128% | viability, T/C [36]: 45.1%

CC[C@@]1(O)C(=O)OCc2c1cc1n(c2=O)Cc2cc3c(CN(C)C)c(O)ccc3nc2-1 + Nc1ccc(C#CCN(C(=O)Cc2ncc(C(F)(F)F)cc2C(F)(F)F)c2ccc(F)cc2)nn1
IC50 (second compound 0.0316 µM): > 100 nM | IC50 (second compound 0.1 µM): > 100 nM | IC50 (second compound 0.316 µM): > 100 nM | IC50 (second compound 1 µM): > 100 nM | IC50 (second compound 3.16 µM): > 100 nM | IC50 (second compound 10 µM): > 100 nM | viability, T/C (second compound 0.0316 µM, first compound 0.000316 µM): 104% | viability, T/C (second compound 0.0316 µM, first compound 0.001 µM): 99.7% | viability, T/C [1]: 99.6% | viability, T/C [2]: 84.8% | viability, T/C [3]: 84.5% | viability, T/C [4]: 66.1% | viability, T/C (second compound 0.1 µM, first compound 0.000316 µM): 107% | viability, T/C (second compound 0.1 µM, first compound 0.001 µM): 99.6% | viability, T/C [7]: 93.3% | viability, T/C [8]: 101% | viability, T/C [9]: 85.7% | viability, T/C [10]: 68.1% | viability, T/C (second compound 0.316 µM, first compound 0.000316 µM): 97.3% | viability, T/C (second compound 0.316 µM, first compound 0.001 µM): 101% | viability, T/C [13]: 89.6% | viability, T/C [14]: 81.1% | viability, T/C [15]: 87.3% | viability, T/C [16]: 80.9% | viability, T/C (second compound 1 µM, first compound 0.000316 µM): 90.2% | viability, T/C (second compound 1 µM, first compound 0.001 µM): 104% | viability, T/C [19]: 101% | viability, T/C [20]: 100% | viability, T/C [21]: 81.5% | viability, T/C [22]: 69.7% | viability, T/C (second compound 3.16 µM, first compound 0.000316 µM): 102% | viability, T/C (second compound 3.16 µM, first compound 0.001 µM): 99% | viability, T/C [25]: 126% | viability, T/C [26]: 102% | viability, T/C [27]: 75.1% | viability, T/C [28]: 76.6% | viability, T/C (second compound 10 µM, first compound 0.000316 µM): 122% | viability, T/C (second compound 10 µM, first compound 0.001 µM): 119% | viability, T/C [31]: 116% | viability, T/C [32]: 95% | viability, T/C [33]: 91.5% | viability, T/C [34]: 91%

CCc1c2c(nc3ccc(O)cc13)-c1cc3c(c(=O)n1C2)COC(=O)[C@]3(O)CC + Nc1ccc(C#CCN(C(=O)Cc2ncc(C(F)(F)F)cc2C(F)(F)F)c2ccc(F)cc2)nn1
IC50 (second compound 0.0316 µM): 107 nM | IC50 (second compound 0.1 µM): 169 nM | IC50 (second compound 0.316 µM): 177 nM | IC50 (second compound 1 µM): 90.8 nM | IC50 (second compound 3.16 µM): 168 nM | IC50 (second compound 10 µM): 278 nM | viability, T/C [1]: 77.5% | viability, T/C [2]: 71% | viability, T/C [3]: 59.1% | viability, T/C [4]: 51.3% | viability, T/C [5]: 40% | viability, T/C [6]: 27.1% | viability, T/C [7]: 92.6% | viability, T/C [8]: 68.3% | viability, T/C [9]: 70.8% | viability, T/C [10]: 62.3% | viability, T/C [11]: 39.5% | viability, T/C [12]: 27.9% | viability, T/C [13]: 77.5% | viability, T/C [14]: 76% | viability, T/C [15]: 72.6% | viability, T/C [16]: 51% | viability, T/C [17]: 46.6% | viability, T/C [18]: 26.8% | viability, T/C [19]: 86.4% | viability, T/C [20]: 82.6% | viability, T/C [21]: 59.3% | viability, T/C [22]: 50.1% | viability, T/C [23]: 40.1% | viability, T/C [24]: 31.4% | viability, T/C [25]: 94.8% | viability, T/C [26]: 84.2% | viability, T/C [27]: 71.1% | viability, T/C [28]: 52.3% | viability, T/C [29]: 45.9% | viability, T/C [30]: 27.4% | viability, T/C [31]: 93.6% | viability, T/C [32]: 89.1% | viability, T/C [33]: 78.9% | viability, T/C [34]: 59.8% | viability, T/C [35]: 51.4% | viability, T/C [36]: 34.1%
